Earlier results as cited in patent US6063383A, “Pharmaceutical suppository composites for fever and influenza and method of producing the composites” (priority 1999, dated 2000).
“Also recorded” adds a separate entry of the source. Read-outs that look alike come from different tables or passages of the source.

Legend:
sleeping time = conditions: sub-threshold pento-barbital sodium
[1] = system: post-synaptic GABA receptors
pain = conditions: oral intake or injection
[2] = system: heart failure; left ventricles
[3] = system: hemorrhagic heart failure
blood platelets = conditions: ADP, arachidonic acids and collagen
[4] = system: TXA; prostate glandis (PGI)
[5] = system: essential hypertension and critical hypertension; conditions: in vivo
blood cholesterol = conditions: in vivo
[6] = system: liver injury caused by carbon tetrachloride
small rats [7] = system: small rats
small rats [8] = conditions: rat, in vivo
[9] = system: twisting reaction of small rats caused by acetic acid; conditions: into the stomach
[10] = system: blood capillary permeability; conditions: into the stomach
[11] = system: heart separated from frogs, wister rats, or rabbits
granuloma = conditions: for anti-granulomatous action: cotton granulomatous method; for anti-osmosis: granulationimplantation
small rats [12] = system: small rats; remark: listed apart in the source
[13] = system: smooth muscles of the gall bladder and the dilator in the opening of the bile duct
nephrosis = conditions: intra-abdominal
[14] = infusing to the stomach of small rats

NCCS(=O)(=O)O [taurine]
hypnotizing action (sleeping time): increase the hypnotizing action
electrical activities (cerebral cortical nerves): can inhibit both the spontaneous and induced electrical activities and produce hyperpolarization
inhibitory effect on the spinal cord and brain stem with strychnine (cerebral cortical nerves; strychnine): antagonized by strychnine
affinity for post-synaptic GABA receptors [1]: no significant affinity
replacement of GABA effects ([1]; central nervous system): cannot replace the inhibitory effect and modulating effect of GABA
effect on convulsion (convulsion; pento-tetra-amine, cepharathin, carbon monoxide, aluminum oxide, 4-amino pyride, penicillin, oxygen, low calcium, sound, L-uric acid): inhibitory effect
latency period of convulsion (convulsion; strychnine): can significantly extend the latency period
body temperature (hypothalamus; injection into the hypothalamus): can increase the body temperature
body temperature (hypothalamus; large dosage): can reduce the body temperature
effect on PGE1 and PGE2 mechanism (heat-induced pyrogenesis; E1 (PGE1) and E2 (PGE2)): so such effect occurs
inhibition of pyrogenesis (heat-induced pyrogenesis; endotoxin and white blood cells, injection into the cerebral ventricles): can inhibit the heat-induced pyrogenesis of endotoxin and white blood cells
pain relief (pain): does not produce noticeable pain relief
hypotensive effect (hypertension; essential or deoxy-cortisone acetate-induced hypertension): hypotensive effect
output of left ventricles ([2]; after 1 mg/kg propranolol or diltiazem): can improve the output of left ventricles
life expectancy ([2]; long-term oral): extends the life expectancy of rabbits
prevention of heart failure ([2]; long-term oral, incomplete opening and closing of aortic valves): can prevent the accelerated hemorrhagic heart failure
normal rate and final diastolic pressure of left ventricles ([2]; rabbit, in vivo): does not affect the normal rate of rabbits and the final diastolic pressure of left ventricles
output and systolic pressure of the left ventricles ([2]; rabbit, in vivo): significantly increase the output and systolic pressure of the left ventricles
heart-failure mortality rate ([2]; treatment group): significantly reduces with a lower heart pulse
treatment effect ([3]; 6 g daily, four weeks): noticeable treatment effect
action and metabolism of cardiac tonic ([3]; catecholamines and digitalis): does not affect the action and metabolism of cardiac tonic
agglomeration of blood platelets (blood platelets): dosage-dependence relationship; also recorded: inhibitory action on the agglomeration of blood platelets
formation of TXA by arachidonic acids [4]: no effect on the formation of TXA by arachidonic acids
formation of TXA by collagen [4]: can inhibit the formation of TXA by collagen
formation of PGI (TXA): no noticeable effect
formation of thrombi (formation of thrombi): noticeable inhibition on the formation of thrombi
effect on cell membrane (myocardia): stabilizing effect on the cell membrane
formation of glutathione (myocardia): increase the formation of glutathione
myocardial blood deficiency and damage (myocardia): can significantly inhibit myocardial blood deficiency and damage
myocardial injury by hyperpolarization of calcium (myocardia): antagonize the myocardial injury
oxygen free radicals (myocardia): reduce the formation of oxygen free radicals; also recorded: increases the excretion of oxygen free radicals
effect on Ca^2+ in the myocardia (cardiac arrhythmias): biphasic moderation
prevention of cardiac arrhythmias (cardiac arrhythmias): can prevent cardiac arrhythmias
anti-arrhythmic effect (cardiac arrhythmias; used together with quinidina, small rats): better anti-arrhythmic effect
effects in treating hypertension [5]: satisfactory
atherosclerosis (blood cholesterol): prevent atherosclerosis
blood cholesterol (blood cholesterol): reduce blood cholesterol
high-density lipoproteins (blood cholesterol): increase high-density lipoproteins
protection for liver injury ([6]; in vivo): protection for the liver injury
rise of ALT ([6]; in vivo): inhibits the rise of ALT
repairing of liver cells ([6]; pathological sectioning): can promote the repairing of liver cells and the prevention of lipohepatitis
LD50 (small rats [7]; intravenous): 330 mg/kg
pathological changes (small rats [8]): no pathological changes are found

CC1CCC(C(C)C)C(O)C1 (stereo not drawn) [Methol]
inhibitory rate on twisting reaction [9]: 41.3%

CC(C)=C1CC[C@@H](C)CC1=O [Pulegone]
inhibitory rate on abdominal osmosis [10]: 39.8%

C=C1CCC2CC1C2(C)C (stereo not drawn) [β-pipene]
inflammation action (inflammation): have inflammation action

C[C@H](CCC(=O)O)[C@H]1CC[C@H]2[C@@H]3[C@H](O)C[C@@H]4C[C@H](O)CC[C@]4(C)[C@H]3C[C@H](O)[C@]12C [calcium cholic acid]
blood pressure lowering effect (hypertension; oral, 100 mg/kg): significant and long-lasting blood pressure lowering effect
duration of hypotensive effect (hypertension; oral, 100 mg/kg): one

O=C1C[C@@H]2OCC=C3CN4CC[C@]56c7ccccc7N1[C@H]5[C@H]2[C@H]3C[C@H]46 [Strychnine, reference compound]
antagonism of pyrexia (hypothalamus; rat, in vivo): can antagonize pyrexia

C=CC1=C(C)/C(=C/c2[nH]c(Cc3[nH]c(/C=C4\NC(=O)C(C)=C4C=C)c(C)c3CCC(=O)O)c(CCC(=O)O)c2C)NC1=O [bilirubin]
cardiac tonic effect [11]: cardiac tonic effect
contracting effect on aortic arteries (aortic arteries): weaker contracting effect

C[C@H](CCC(=O)O)[C@H]1CC[C@H]2[C@@H]3[C@H](O)C[C@@H]4C[C@H](O)CC[C@]4(C)[C@H]3C[C@H](O)[C@]12C [cholic acid]
cardiac tonic effect [11]: cardiac tonic effect
contracting effect on aortic arteries (aortic arteries): contracting effect

COc1cc(CC2(O)C(=O)OCC2Cc2ccc(OC)c(OC)c2)ccc1O (single isomer, unassigned) [trachelogenin]
IC50 (colon): 1.1 µM
antagonistic action on calcium (colon): noticeable antagonistic action on calcium
effect on contraction (colon; high concentration of potassium): inhibitory effect on the contraction
pA2 (colon; rat, colon): 6.60
ratio to verapamil (colon; versus verapamil): one-sixth

CCCCCC(O)CC (stereo not drawn) [3-octanol]
inflammation action (inflammation): have inflammation action

CC(C)NCC(O)COc1cccc2ccccc12 (stereo not drawn) [propranolol, reference compound]
output of left ventricles ([2]; 1 mg/kg): the output of the left ventricles reduces

bupleurum saponin-a
anti-granulomatous action (granuloma): anti-granulomatous action
anti-osmosis (granuloma): anti-osmosis
inhibition on over-activity (small rats [12]; mounting experiments, conditional aversion): noticeable inhibition on the over-activity
tranquilizing effect (small rats [12]; rat, in vivo): significant tranquilizing effect
coughing-relieving action, dose relation (coughing; intra-abdominal, 100~200 mg/kg, wister rats, 200 mg/kg): most noticeable coughing-relieving action; also recorded: related to its dosage
action of relieving coughing (coughing; rat, in vivo): stronger action of relieving coughing

deoxy-chloretic acid
effect on bile duct / excretion of bile [13]: can relax the dilators of the bile duct
LD50 (small rats [7]; [14]): 1060 mg/kg
LD50 (small rats [7]; intravenous): 150 mg/kg

bupleurum saponin-d
anti-granulomatous action (granuloma): anti-granulomatous action
anti-osmosis (granuloma): anti-osmosis

COc1cc(C[C@H]2C(=O)OC[C@@H]2Cc2ccc(OC)c(OC)c2)ccc1O [arctigenin]
excretion of proteins in urine (nephrosis): can inhibit the increase in the excretion of proteins in urine
serum biochemical index (nephrosis): improve the serum biochemical index

chloretic acid
LD50 (small rats [7]; [14]): 1520 mg/kg

COc1ccc([C@@H]2Sc3ccccc3N(CCN(C)C)C(=O)[C@@H]2OC(C)=O)cc1 [diltiazem, reference compound]
output of left ventricles ([2]; 1 mg/kg): the output of the left ventricles reduces
